In patent publication US12698507B2, “Methods and compositions for conferring and/or enhancing herbicide tolerance using protoporphyrinogen IX oxidase of various cyanobacteria or variant thereof” (FarmHannong Co., Ltd., priority 2019, dated 2026):
pIC50: −log10 of the molar value. Read-outs that look alike come from different tables or passages of the source.

What was measured:
[1] = molecular target: T1, Thermosynechococcus elongatus PKUAC-SCTE542 protoporphyrinogen IX oxidase CyPPO19, wild type, SEQ ID NO: 1 (MBP fusion) (Thermosynechococcus sichuanensis, UniProt A0A7D6JSC1); experiment: PPO enzyme inhibition assay (IC50 for herbicides), CyPPO19 wild type fused to MBP; format: biochemical
T1 sequence (A0A7D6JSC1 1-467): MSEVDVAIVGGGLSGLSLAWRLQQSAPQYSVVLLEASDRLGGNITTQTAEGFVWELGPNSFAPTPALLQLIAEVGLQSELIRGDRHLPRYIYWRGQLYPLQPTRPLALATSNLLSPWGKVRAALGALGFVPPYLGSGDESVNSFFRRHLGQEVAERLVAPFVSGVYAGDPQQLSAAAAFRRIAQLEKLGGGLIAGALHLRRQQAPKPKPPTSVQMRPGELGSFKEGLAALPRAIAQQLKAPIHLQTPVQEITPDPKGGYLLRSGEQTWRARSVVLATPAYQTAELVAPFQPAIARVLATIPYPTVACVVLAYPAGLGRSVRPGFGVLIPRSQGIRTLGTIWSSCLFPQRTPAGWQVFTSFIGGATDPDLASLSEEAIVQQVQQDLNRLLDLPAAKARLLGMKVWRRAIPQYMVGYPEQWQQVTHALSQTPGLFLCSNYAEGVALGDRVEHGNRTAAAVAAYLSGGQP

[2] = molecular target: Thermosynechococcus vulcanus NIES-2134 protoporphyrinogen IX oxidase CyPPO18, wild type, SEQ ID NO: 3 (MBP fusion) (Thermosynechococcus vestitus, UniProt Q8DLV2); format: biochemical; settings: CyPPO18 WT; 50 μM protoporphyrinogen IX, pH 7.5, room temperature, 30 min
[3] = tested on: PPO-deficient BT3 E. coli (ΔPPO) transformed with CyPPO19 variant R89A+F360L (Thermosynechococcus elongatus PKUAC-SCTE542, SEQ ID NO: 1); experiment: Herbicide tolerance test in E. coli, CyPPO19 R89A+F360L; format: cell-based; settings: LB agar, 0 to 2,000 μM herbicide, 37° C., 16-20 hours
Excerpt: (§1) To enhance the PPO-inhibiting herbicide resistance of CyPPO19 and CyPPO18, PPO variant genes of the above example 2 were constructed. They were transformed to BT3 (ΔPPO) strain which is deficient of PPO activity and cultured in LB media with PPO-inhibiting herbicide, thereby examining whether growth of transformed BT3 was not inhibited.
(§2) BT3 competent cells were transformed with the pET303-CyPPO19 (wild type), pET303-CyPPO18 (wild type) plasmids, and those with a mutation(s) constructed (refer to example 2) via heat shock method, and were cultured in LB agar media containing ampicillin.
(§3) Single colony transformed with each CyPPO gene was cultured in 3 mL of LB broth (LPSS) containing ampicillin for more than 12 hours, and then was subcultured in LB broth until absorbance (OD600) reached 0.5 to 1. Then, it was diluted with LB broth to OD600=0.5. Again, the diluted solution was serially diluted 4 times by a factor of one tenth. […]
(§4) Then, 10 μL of each diluted solution of E. coli was dropped on the plate and cultured at 37° C. under dark for 16-20 hours. PPO-inhibiting herbicide resistance was evaluated with the extent of E. coli growth containing each gene was observed.
(§5) The extent of herbicide resistance was evaluated by the relative growth of variants to that of wild type, and listed in Tables 9 and 10 and FIGS. 3 to 32. […]

[4] = tested on: PPO-deficient BT3 E. coli (ΔPPO) transformed with CyPPO19 variant R89A+F360T (Thermosynechococcus elongatus PKUAC-SCTE542, SEQ ID NO: 1); experiment: Herbicide tolerance test in E. coli, CyPPO19 R89A+F360T; format: cell-based; settings: LB agar, 0 to 2,000 μM herbicide, 37° C., 16-20 hours
Excerpt: as §1, §2, §3, §4, §5

[5] = tested on: PPO-deficient BT3 E. coli (ΔPPO) transformed with CyPPO19 variant V165C+F360M (Thermosynechococcus elongatus PKUAC-SCTE542, SEQ ID NO: 1); experiment: Herbicide tolerance test in E. coli, CyPPO19 V165C+F360M; format: cell-based; settings: LB agar, 0 to 2,000 μM herbicide, 37° C., 16-20 hours
Excerpt: as §1, §2, §3, §4, §5

[6] = tested on: PPO-deficient BT3 E. coli (ΔPPO) transformed with CyPPO18 variant R89A+F360V (Thermosynechococcus vulcanus NIES-2134, SEQ ID NO: 3); format: cell-based; settings: LB agar, 0 to 2,000 μM herbicide, 37° C., 16-20 hours
Excerpt: as §1, §2, §3, §4, §5

[7] = tested on: PPO-deficient BT3 E. coli (ΔPPO) transformed with CyPPO18 variant A167L+F360I (Thermosynechococcus vulcanus NIES-2134, SEQ ID NO: 3); experiment: Herbicide tolerance test in E. coli, CyPPO18 A167L+F360I; format: cell-based; settings: LB agar, 0 to 2,000 μM herbicide, 37° C., 16-20 hours
Excerpt: as §1, §2, §3, §4, §5

[8] = tested on: PPO-deficient BT3 E. coli (ΔPPO) transformed with CyPPO18 variant V305M+F360I (Thermosynechococcus vulcanus NIES-2134, SEQ ID NO: 3); experiment: Herbicide tolerance test in E. coli, CyPPO18 V305M+F360I; format: cell-based; design: key to the marks not given beside the values; settings: LB agar, 0 to 2,000 μM herbicide, 37° C., 16-20 hours
Excerpt: as §1, §2, §3, §4, §5

[9] = tested on: PPO-deficient BT3 E. coli (ΔPPO) transformed with CyPPO18 variant L327T+F360M (Thermosynechococcus vulcanus NIES-2134, SEQ ID NO: 3); experiment: Herbicide tolerance test in E. coli, CyPPO18 L327T+F360M; format: cell-based; design: key to the marks not given beside the values; settings: LB agar, 0 to 2,000 μM herbicide, 37° C., 16-20 hours
Excerpt: as §1, §2, §3, §4, §5

[10] = tested on: PPO-deficient BT3 E. coli (ΔPPO) transformed with CyPPO18 variant A167L+V305M+F360M (Thermosynechococcus vulcanus NIES-2134, SEQ ID NO: 3); format: cell-based; design: key to the marks not given beside the values; settings: LB agar, 0 to 2,000 μM herbicide, 37° C., 16-20 hours
Excerpt: as §1, §2, §3, §4, §5

[11] = tested on: PPO-deficient BT3 E. coli (ΔPPO) transformed with CyPPO18 variant V165S+A167L+V305M+F360I (Thermosynechococcus vulcanus NIES-2134, SEQ ID NO: 3); experiment: Herbicide tolerance test in E. coli, CyPPO18 V165S+A167L+V305M+F360I; format: cell-based; design: key to the marks not given beside the values; settings: LB agar, 0 to 2,000 μM herbicide, 37° C., 16-20 hours
Excerpt: as §1, §2, §3, §4, §5

[12] = molecular target: Thermosynechococcus vulcanus NIES-2134 protoporphyrinogen IX oxidase CyPPO18 (SEQ ID NO: 3) variant V165C (MBP fusion) (Thermosynechococcus vestitus, UniProt Q8DLV2, V165C); format: biochemical; settings: 50 μM protoporphyrinogen IX, pH 7.5, room temperature, 30 min
[13] = molecular target: Thermosynechococcus vulcanus NIES-2134 protoporphyrinogen IX oxidase CyPPO18 (SEQ ID NO: 3) variant A167I (MBP fusion) (Thermosynechococcus vestitus, UniProt Q8DLV2, A167I); experiment: PPO enzyme inhibition assay (IC50 for herbicides), CyPPO18 A167I fused to MBP; format: biochemical; settings: 50 μM protoporphyrinogen IX, pH 7.5, room temperature, 30 min
Chain of Thermosynechococcus vulcanus NIES-2134 protoporphyrinogen IX oxidase CyPPO18 (SEQ ID NO: 3) variant A167I (MBP fusion) (Q8DLV2 entry or part of it A167I): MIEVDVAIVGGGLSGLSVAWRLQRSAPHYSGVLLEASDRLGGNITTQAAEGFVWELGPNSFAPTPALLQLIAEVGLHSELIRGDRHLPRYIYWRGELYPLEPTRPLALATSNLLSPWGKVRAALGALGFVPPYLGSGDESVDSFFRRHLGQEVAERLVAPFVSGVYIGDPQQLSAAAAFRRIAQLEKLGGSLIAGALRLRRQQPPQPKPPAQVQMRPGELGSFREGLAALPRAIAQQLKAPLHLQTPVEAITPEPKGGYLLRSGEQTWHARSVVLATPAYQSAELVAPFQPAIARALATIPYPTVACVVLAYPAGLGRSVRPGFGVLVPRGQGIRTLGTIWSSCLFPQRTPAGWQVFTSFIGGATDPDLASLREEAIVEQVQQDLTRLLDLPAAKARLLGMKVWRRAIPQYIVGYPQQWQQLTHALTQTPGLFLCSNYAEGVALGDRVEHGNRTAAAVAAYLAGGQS

Chain of Thermosynechococcus vulcanus NIES-2134 protoporphyrinogen IX oxidase CyPPO18, wild type, SEQ ID NO: 3 (MBP fusion) (Q8DLV2 entry or part of it): as the sequence (Q8DLV2 entry or part of it A167I) above, with I167A counted along it
Chain of Thermosynechococcus vulcanus NIES-2134 protoporphyrinogen IX oxidase CyPPO18 (SEQ ID NO: 3) variant V165C (MBP fusion) (Q8DLV2 entry or part of it V165C): as the sequence (Q8DLV2 entry or part of it A167I) above, with V165C, I167A counted along it

| Compound | pIC50 ([1]; CyPPO19 WT, 50 μM protoporphyrinogen IX, pH 7.5, room temperature, 30 min) | pIC50 [2] | tolerance level (relative growth of variant to wild type) [3] | tolerance level (relative growth of variant to wild type) [4] | tolerance level (relative growth of variant to wild type) [5] | tolerance level (relative growth of variant to wild type) [6] | tolerance level (relative growth of variant to wild type) [7] | tolerance level (relative growth of variant to wild type) [8] | tolerance level (relative growth of variant to wild type) [9] | tolerance level (relative growth of variant to wild type) [10] | tolerance level (relative growth of variant to wild type) [11] | pIC50 [12] | pIC50 [13] | pIC50 [1] |
| --- | --- | --- | --- | --- | --- | --- | --- | --- | --- | --- | --- | --- | --- | --- |
| Cc1nn(-c2cc(CC(Cl)C(=O)O)c(Cl)cc2F)c(=O)n1C(F)F (centres unmarked) [Carfentrazone] | 6.12 | 6.25 | + | + | + | ++ | ++ | ++ | ++ | ++ | ++ | 5.91 | 5.58 | – |
| CCOc1cc(Oc2ccc(C(F)(F)F)cc2Cl)ccc1[N+](=O)[O-] [Oxyfluorfen] | – | 6.99 | + | + | ++ | + | + | ++ | ++ | ++ | ++ | 6.30 | 5.70 | 6.24 |
